Measurements as given in US12466840B2, “Small molecule inhibitors of KRAS proteins” (Merck Sharp & Dohme LLC, priority 2023, dated 2025).

How the values were obtained:
[1] = Dog IV/PO pharmacokinetic studies; format: in vivo; details: for clearance / MRT / Vd / bioavailability / CLp: plasma; for clearance / MRT / Vd / CLp: IV 0.25 mg/kg (Ex-2 0.05 mg/kg); for clearance: read-out: CLp; for bioavailability / F %: oral bioavailability, PO 0.5 mg/kg vs. IV
Description: Procedure for Dog IV/PO Pharmacokinetic Studies
Plasma pharmacokinetic parameters for clearance, volume of distribution, half-life, mean residence time (MRT) and oral bioavailability were determined in dogs from oral administration and IV administration studies. 4 male dogs, typically weighing 8-12 kg, were fasted overnight prior to dosing. IV formulation was administered to 2 dogs via the saphenous or cephalic vein, and oral dosing was administered to 2 dogs via oral gavage. Blood was collected by the cephalic or jugular vein, typically at predose, 2, 8, 15, 30 min, 1, 2, 4, 6, 8 and 24 h postdose for IV, and at predose, 15, 30 min, 1, 2, 4, 6, 8, and 24 hr for oral dosing. Samples were collected in K2EDTA tubes, stored on ice, and centrifuged. Plasma was transferred to a micro titer plate and stored at −70° C. until analysis. Plasma samples were extracted using protein precipitation and analyzed by liquid chromatography separation followed by mass spec detection (LC-MS/MS), using a standard curve for each compound. Plasma pharmacokinetic parameters were calculated for IV and oral dosing data by non-compartmental methods. Oral bioavailability was determined as the ratio of the dose-normalized plasma area under the curve (AUC) following oral dosing vs. IV dosing.

[2] = Dog IV cassette pharmacokinetic studies; format: in vivo; details: plasma, IV cassette 0.05 mg/kg
Description: Procedure for Dog IV Cassette Pharmacokinetic Studies
Plasma pharmacokinetic parameters for clearance, volume of distribution, half-life, and mean residence time (MRT) were determined in dogs from IV cassette administration studies. 2 male dogs, typically weighing 8-12 kg, were fasted overnight prior to dosing. IV formulation was administered to 2 dogs via the saphenous or cephalic vein. Blood was collected by the cephalic or jugular vein, typically at predose, 2, 8, 15, 30 min, 1, 2, 4, 6, 8 and 24 h postdose. Samples were collected in K2EDTA tubes, stored on ice, and centrifuged. Plasma was transferred to a micro titer plate and stored at −70° C. until analysis. Plasma samples were extracted using protein precipitation and analyzed by liquid chromatography separation followed by mass spec detection (LC-MS/MS), using a standard curve for each compound. Plasma pharmacokinetic parameters were calculated by non-compartmental methods.

| SMILES | clearance ([1]; male) [mL/min/kg] | MRT ([1]; male, read-out: MRT) [h] | Vd ([1]; male, read-out: Vd) [L/kg] | bioavailability ([1]; male) [%] | F % [1] [%] | CLp [1] [mL/min/kg] | MRT [1] [h] | Vd [1] [L/kg] | also measured |
| --- | --- | --- | --- | --- | --- | --- | --- | --- | --- |
| CCc1c(F)ccc2cc3[nH]nc(C)c3c(-c3nc4c5c(nc(OC[C@@]67CCCN6C[C@H](F)C7)nc5c3F)N3CCCOC[C@H]3CO4)c12 [Ex-6, (8aS)-5-(5-ethyl-6-fluoro-3-methyl-1H-benzo[f]indazol-4-yl)-4-fluoro-2-(((2R,7aS)-2-fluorotetrahydro-1H-pyrrolizin-7a(5H)-yl)methoxy)-8a,9,12,13-tetrahydro-8H,11H-7,10-dioxa-1,3,6,13a-tetraazanaphtho[1,8-ab]heptalene] | 8 | 7.8 | 3.7 | 59 |  |  |  |  |  |
| Fc1c(-c2c(C3CC3)c(Cl)cc3[nH]ncc23)nc2c3c(nc(OC[C@@]45CCCN4C[C@H](F)C5)nc13)N1CCCOC[C@H]1CO2 [Ex-3, (8aS)-5-(6-chloro-5-cyclopropyl-1H-indazol-4-yl)-4-fluoro-2-(((2R,7aS)-2-fluorotetrahydro-1H-pyrrolizin-7a(5H)-yl)methoxy)-8a,9,12,13-tetrahydro-8H,11H-7,10-dioxa-1,3,6,13a-tetraazanaphtho[1,8-ab]heptalene] | 10 | 3.6 | 2.2 | 15 |  |  |  |  |  |
| F/C=C1/CN2CCC[C@@]2(COc2nc3c4c(nc(-c5c(C6CC6)c(Cl)cc6[nH]ncc56)c(F)c4n2)OC[C@@H]2COCCCN32)C1 [Ex-1, (8aS)-5-(6-chloro-5-cyclopropyl-1H-indazol-4-yl)-4-fluoro-2-(((S,Z)-2-(fluoromethylene)tetrahydro-1H-pyrrolizin-7a(5H)-yl)methoxy)-8a,9,12,13-tetrahydro-8H,11H-7,10-dioxa-1,3,6,13a-tetraazanaphtho[1,8-ab]heptalene] |  |  |  |  | 17 | 5.0 | 2.2 | 0.65 |  |
| CCc1c(F)ccc2cc3[nH]ncc3c(-c3nc4c5c(nc(OC[C@@]67CCCN6C[C@H](F)C7)nc5c3F)N3CCCOC[C@H]3CO4)c12 [Ex-2, (8aS)-5-(5-ethyl-6-fluoro-1H-benzo[f]indazol-4-yl)-4-fluoro-2-(((2R,7aS)-2-fluorotetrahydro-1H-pyrrolizin-7a(5H)-yl)methoxy)-8a,9,12,13-tetrahydro-8H,11H-7,10-dioxa-1,3,6,13a-tetraazanaphtho[1,8-ab]heptalene] |  |  |  |  | 29 | 18 | 2.4 | 2.6 |  |
| CCc1c(F)ccc2cc3[nH]nc(C)c3c(-c3nc4c5c(nc(OC[C@@]67CCCN6C/C(=C\F)C7)nc5c3F)N3CCCOC[C@H]3CO4)c12 [Ex-7, (8aS)-5-(5-ethyl-6-fluoro-3-methyl-1H-benzo[f]indazol-4-yl)-4-fluoro-2-(((S,Z)-2-(fluoromethylene)tetrahydro-1H-pyrrolizin-7a(5H)-yl)methoxy)-8a,9,12,13-tetrahydro-8H,11H-7,10-dioxa-1,3,6,13a-tetraazanaphtho[1,8-ab]heptalene] |  |  |  |  |  |  |  |  | CLp [2]: 7.7 mL/min/kg; MRT [2]: 3.1 h; Vd [2]: 1.4 L/kg |
